Some test systems named below: SK-MEL-5 melanoma; EKVX NSCLC; COLO 205 colon; SF-539 CNS; K-562 leukemia; KM12 colon; OVCAR-5 ovarian; HCT-15 colon; SF-268 CNS; SF-295 CNS.
Common to all, as to assay: growth of human tumour cells (NCI), 48 h

TGI and GI50 data for 15 compounds are collected here from PubChem BioAssay (NCI).

SMILES strings stand for the structures.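 Cultured in 96-well plates, cells were exposed to test compound for 48 hours across five concentrations. GI50 marks 50% less growth. The concentration for full growth arrest is given as TGI.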

In the case of `CC(CNCCCNCCNCCCNCO)[N+](=O)[O-]` (stereo unspecified), the TGI in the assay on SK-MEL-5 melanoma came out at 29.9 µM; in the assay on EKVX NSCLC, 29.9 µM; in the assay on COLO 205 colon, 19.3 µM; in the assay on SF-539 CNS it was 29.2 µM; in the assay on K-562 leukemia it was 19.6 µM; in the assay on KM12 colon, 29.7 µM. The TGI in the assay on OVCAR-5 ovarian is 26.8 µM; in the assay with HCT-15 colon, 23.2 µM; in the assay on SF-268 CNS it was 29.6 µM; in the assay on SF-295 CNS, above 100 µM.

Regarding `C/C(=N\NC(=S)N1CC2CCC(CC2)C1)c1cccc(C)n1`, the GI50 with SK-MEL-5 melanoma is 0.287 µM; in the assay with EKVX NSCLC, 0.326 µM; in the assay with COLO 205 colon, 0.000385 µM; in the assay with SF-539 CNS, 0.464 µM; with K-562 leukemia it was below 0.0001 µM; with OVCAR-5 ovarian it was below 0.0001 µM. Moreover, in the assay on HCT-15 colon, the GI50 was 0.307 µM. Besides, the TGI was found to be 13.7 µM in the assay on SK-MEL-5 melanoma; 4.63 µM in the assay with EKVX NSCLC; 11.1 µM in the assay on COLO 205 colon; 2.58 µM in the assay on SF-539 CNS; 14.8 µM in the assay with KM12 colon; 15.9 µM in the assay on OVCAR-5 ovarian. The TGI with HCT-15 colon is 17.4 µM; in the assay on SF-268 CNS it was 13 µM; in the assay on SF-295 CNS, 13.1 µM.

For `Cc1[nH]c(-c2nc3ccccc3[nH]2)c(C)c1C(=O)NC(C)C1CCCCC1` (stereo unspecified), the GI50 in the assay on SK-MEL-5 melanoma was 10.3 µM; in the assay with EKVX NSCLC it was 11.4 µM; in the assay on COLO 205 colon, 18.3 µM; with SF-539 CNS it was 6.7 µM; with K-562 leukemia, 3.45 µM; in the assay with KM12 colon it was 10.2 µM. Besides, the GI50 in the assay with OVCAR-5 ovarian was 15 µM; in the assay on HCT-15 colon, 4.77 µM; in the assay with SF-268 CNS it was 11.9 µM; in the assay on SF-295 CNS it was 4.8 µM. Further, the TGI is 22.3 µM in the assay on SK-MEL-5 melanoma; 23.7 µM with EKVX NSCLC; 58 µM in the assay on COLO 205 colon; 19.6 µM in the assay on SF-539 CNS; above 100 µM in the assay with K-562 leukemia; 22.8 µM in the assay with KM12 colon. The TGI in the assay with OVCAR-5 ovarian worked out at 29.2 µM; in the assay with HCT-15 colon, 19.6 µM; with SF-268 CNS it was 30.9 µM; with SF-295 CNS, 16.8 µM.

For the compound `CCCCNC(=O)c1cc(NCc2cc(O)ccc2O)ccc1O`, the GI50 in the assay on SK-MEL-5 melanoma is 15.4 µM; in the assay with EKVX NSCLC it was 13.4 µM; with COLO 205 colon, 17 µM; in the assay on SF-539 CNS, 4.16 µM; in the assay with K-562 leukemia it was 16.6 µM; in the assay with KM12 colon, 14.4 µM. The GI50 in the assay on OVCAR-5 ovarian is 17.4 µM; with HCT-15 colon, 10.7 µM; in the assay with SF-268 CNS it was 10.3 µM; in the assay on SF-295 CNS, 46.2 µM. The TGI with SK-MEL-5 melanoma was found to be 29.6 µM; with EKVX NSCLC it was 28.1 µM; in the assay on COLO 205 colon, 36.9 µM; in the assay with SF-539 CNS, 17.1 µM; with K-562 leukemia, 75.2 µM; in the assay on KM12 colon, 57.7 µM. Moreover, the TGI in the assay with OVCAR-5 ovarian was 32 µM; with HCT-15 colon it was 32.4 µM; in the assay on SF-268 CNS, 23.6 µM; with SF-295 CNS, above 100 µM.

Consider `CC1=C(Cl)C=CP(=O)(OC(C)C)C1` (stereo unspecified), for which the TGI in the assay with SK-MEL-5 melanoma, in the assay on EKVX NSCLC, in the assay on COLO 205 colon, in the assay with SF-539 CNS, in the assay on K-562 leukemia and in the assay on KM12 colon was above 100 µM each time. For the same compound, the TGI in the assay with OVCAR-5 ovarian, with HCT-15 colon, with SF-268 CNS and with SF-295 CNS was above 100 µM in each case.

On to `COc1ccc2c(c1)CC1c3c(ccc(OC)c3O)CC2N1C` (stereo unspecified), for which the TGI in the assay with SK-MEL-5 melanoma was 32.7 µM; in the assay with EKVX NSCLC it was above 84.3 µM; with COLO 205 colon, 34.8 µM; with SF-539 CNS, 54.6 µM; in the assay with K-562 leukemia, 58.9 µM; with KM12 colon, above 89.8 µM. For the same compound, the TGI is above 100 µM with OVCAR-5 ovarian, above 100 µM in the assay with HCT-15 colon, above 100 µM in the assay with SF-268 CNS and 47.1 µM in the assay on SF-295 CNS.

`CCOC(=O)c1oc2ccc([N+](=O)[O-])c3c2c1CCC3`: the TGI in the assay with SK-MEL-5 melanoma was above 100 µM; with EKVX NSCLC, above 100 µM; in the assay with COLO 205 colon, above 100 µM; in the assay with SF-539 CNS it was 39.7 µM; in the assay with K-562 leukemia, above 100 µM; with KM12 colon, above 100 µM. The TGI was above 100 µM in the assay on OVCAR-5 ovarian, above 100 µM with HCT-15 colon, 72.2 µM with SF-268 CNS and 53.9 µM in the assay on SF-295 CNS.

Turning to `O=c1c(NO)c([N+](=O)[O-])cnn1-c1ccccc1`, the TGI with SK-MEL-5 melanoma is 12.4 µM; in the assay on EKVX NSCLC, 29.8 µM; in the assay with COLO 205 colon, 9.85 µM; in the assay on SF-539 CNS it was 28.9 µM; with K-562 leukemia it was 1.86 µM; in the assay on KM12 colon, 23.5 µM. The TGI in the assay with OVCAR-5 ovarian was 14 µM; in the assay with HCT-15 colon it was 11.6 µM; in the assay on SF-268 CNS it was 34.2 µM; in the assay with SF-295 CNS it was 27 µM.

On to `COc1cc(N2CCN(C(C)C)CC2)ccc1Nc1nc(Nc2cccc(F)c2C(=O)O)c2cc[nH]c2n1`, for which the GI50 in the assay with SK-MEL-5 melanoma, with EKVX NSCLC, in the assay on COLO 205 colon, with SF-539 CNS, with K-562 leukemia and with KM12 colon was above 25 µM throughout. The GI50 in the assay with OVCAR-5 ovarian, in the assay on HCT-15 colon, in the assay with SF-268 CNS and in the assay on SF-295 CNS was above 25 µM throughout. The TGI in the assay with SK-MEL-5 melanoma, with EKVX NSCLC, in the assay on COLO 205 colon, with SF-539 CNS, in the assay with K-562 leukemia and in the assay with KM12 colon was above 25 µM each time. Further, the TGI in the assay on OVCAR-5 ovarian, in the assay on HCT-15 colon, with SF-268 CNS and with SF-295 CNS was above 25 µM each time.

With `Cc1cccc(N2C(=O)C(=O)C(c3nc4ccccc4s3)/C(=N/NC(=S)NN)C2=O)c1C` (stereo unspecified), the TGI in the assay on SK-MEL-5 melanoma, in the assay with EKVX NSCLC, in the assay on COLO 205 colon, in the assay with SF-539 CNS, in the assay with K-562 leukemia and with KM12 colon was above 100 µM each time. The TGI with OVCAR-5 ovarian, in the assay on HCT-15 colon, in the assay on SF-268 CNS and with SF-295 CNS was above 100 µM each time.

On to `O=S(=O)([O-])[O-].[Cl-].[NH2-].[NH2-].[NH2-].[NH2-].[Ru+3].c1ccncc1`, for which the TGI in the assay with SK-MEL-5 melanoma, in the assay on EKVX NSCLC, in the assay on COLO 205 colon, in the assay with SF-539 CNS, in the assay on K-562 leukemia and in the assay on KM12 colon was above 100 µM in each case. Moreover, the TGI with OVCAR-5 ovarian, in the assay on HCT-15 colon, in the assay on SF-268 CNS and in the assay on SF-295 CNS was above 100 µM throughout.

Regarding `Cc1cc2nc3cc(C)c(N)cc3[n+](-c3ccccc3)c2cc1N`, the GI50 was 0.773 µM with SK-MEL-5 melanoma; 2.48 µM in the assay on EKVX NSCLC; 2.55 µM in the assay on COLO 205 colon; 4.39 µM in the assay with SF-539 CNS; 3.39 µM in the assay on K-562 leukemia; 2.07 µM in the assay with KM12 colon. Also, the GI50 with OVCAR-5 ovarian is 46.3 µM; in the assay with HCT-15 colon it was above 100 µM; in the assay on SF-268 CNS, 2.23 µM; with SF-295 CNS, 2.94 µM. For the same compound, the TGI with SK-MEL-5 melanoma is 5.4 µM; in the assay on EKVX NSCLC, above 100 µM; with COLO 205 colon, 14.3 µM; with SF-539 CNS, above 100 µM; in the assay on K-562 leukemia, above 100 µM; in the assay on KM12 colon, 17.6 µM. For the same compound, the TGI was above 100 µM in the assay with OVCAR-5 ovarian, above 100 µM with HCT-15 colon, above 100 µM in the assay on SF-268 CNS and above 73.8 µM in the assay on SF-295 CNS.

With `O=c1c(Br)cc2c(-c3ccccc3)c3cc(Br)c(O)c(Br)c3oc-2c1Br`, the TGI with SK-MEL-5 melanoma, with EKVX NSCLC, with COLO 205 colon, in the assay with SF-539 CNS, in the assay on K-562 leukemia and in the assay with KM12 colon was above 100 µM in each case. For the same compound, the TGI with OVCAR-5 ovarian, in the assay on HCT-15 colon, in the assay on SF-268 CNS and with SF-295 CNS was above 100 µM throughout.

In the case of `CN1CCN(Cc2ccc(NC(=O)c3cncc(C#Cc4cncc5nccnc45)c3)cc2C(F)(F)F)CC1`, the GI50 in the assay on SK-MEL-5 melanoma was 2.61 µM; with EKVX NSCLC, above 50 µM; in the assay on COLO 205 colon it was 0.904 µM; with SF-539 CNS it was 0.956 µM; in the assay with K-562 leukemia, 0.005 µM; in the assay on KM12 colon, 0.136 µM. Also, the GI50 in the assay on OVCAR-5 ovarian was 2.15 µM; in the assay with HCT-15 colon it was 2.51 µM; in the assay with SF-268 CNS, 5.22 µM; with SF-295 CNS it was 7.05 µM. The TGI in the assay on SK-MEL-5 melanoma was 8.63 µM; in the assay on EKVX NSCLC, above 50 µM; in the assay on COLO 205 colon it was 7.11 µM; in the assay with SF-539 CNS it was 6 µM; in the assay with K-562 leukemia it was 9.86 µM; in the assay with KM12 colon, 6.88 µM. The TGI with OVCAR-5 ovarian amounted to 32.8 µM; in the assay on HCT-15 colon, 12.9 µM; in the assay with SF-268 CNS, 16.6 µM; in the assay on SF-295 CNS, 14.4 µM.

In the case of `C/C(=N\N=C(\[Se])N(C)C)c1ccccn1`, the TGI is 1.75 µM with SK-MEL-5 melanoma; 11.6 µM in the assay with EKVX NSCLC; 2.05 µM in the assay on COLO 205 colon; 9.03 µM in the assay on SF-539 CNS; 23.6 µM in the assay on K-562 leukemia; 17.9 µM with KM12 colon. In addition, the TGI was 7.31 µM in the assay on OVCAR-5 ovarian, 15.9 µM in the assay with HCT-15 colon, 25.6 µM in the assay with SF-268 CNS and 12 µM in the assay on SF-295 CNS.
